Assay results taken from the NIST ThermoML archive (doi:10.1021/je800110r).
Numbers after ± are expanded uncertainties.

Conditions: 303.16 K, Liquid, Vibrating tube method

Measured: mass density

CCCCCCCCCC [decane]
734.8 ± 2 kg/m3: 16098 kPa | 16331 kPa | 16395 kPa | 16413 kPa | 16661 kPa
735 ± 2 kg/m3: 16470 kPa | 16553 kPa | 16600 kPa | 16642 kPa | 16715 kPa
735.9 ± 2 kg/m3: 17673 kPa | 17724 kPa | 17773 kPa | 17801 kPa | 17825 kPa | 17850 kPa | 17878 kPa | 17931 kPa
736.4 ± 2 kg/m3: 18413 kPa | 18436 kPa | 18523 kPa | 18546 kPa | 18569 kPa | 18595 kPa
737.9 ± 2 kg/m3: 20586 kPa | 20650 kPa | 20667 kPa | 20683 kPa | 20728 kPa
735.8 ± 2 kg/m3: 17601 kPa | 17625 kPa | 17693 kPa | 17745 kPa
737.7 ± 2 kg/m3: 20293 kPa | 20323 kPa | 20347 kPa | 20369 kPa | 20396 kPa | 20439 kPa | 20461 kPa | 20529 kPa | 20545 kPa
734.7 ± 2 kg/m3: 16076 kPa | 16123 kPa | 16149 kPa | 16172 kPa | 16237 kPa | 16261 kPa | 16288 kPa
735.7 ± 2 kg/m3: 17449 kPa | 17479 kPa | 17503 kPa | 17557 kPa | 17581 kPa | 17645 kPa
734.3 ± 2 kg/m3: 15378 kPa | 15434 kPa | 15454 kPa | 15481 kPa | 15524 kPa | 15557 kPa | 15669 kPa | 15720 kPa | 15790 kPa
736.1 ± 2 kg/m3: 17977 kPa | 18041 kPa | 18063 kPa | 18092 kPa | 18144 kPa | 18253 kPa
734.1 ± 2 kg/m3: 15209 kPa | 15228 kPa | 15257 kPa | 15302 kPa | 15329 kPa
735.3 ± 2 kg/m3: 16968 kPa | 16994 kPa | 17016 kPa | 17107 kPa | 17207 kPa
737.8 ± 2 kg/m3: 20501 kPa | 20567 kPa | 20606 kPa | 20625 kPa
736.7 ± 2 kg/m3: 18883 kPa | 18962 kPa | 18998 kPa | 19031 kPa | 19060 kPa | 19085 kPa
737.2 ± 2 kg/m3: 19544 kPa | 19566 kPa | 19634 kPa | 19678 kPa | 19771 kPa | 19794 kPa | 19817 kPa | 19841 kPa | 19862 kPa
735.5 ± 2 kg/m3: 17149 kPa | 17252 kPa | 17298 kPa | 17331 kPa | 17354 kPa | 17377 kPa | 17400 kPa | 17419 kPa
733.4 ± 2 kg/m3: 14288 kPa | 14319 kPa | 14353 kPa
734.6 ± 2 kg/m3: 15838 kPa | 15968 kPa | 15997 kPa | 16029 kPa | 16050 kPa | 16206 kPa
737.1 ± 2 kg/m3: 19498 kPa | 19522 kPa | 19587 kPa | 19656 kPa
734.9 ± 2 kg/m3: 16311 kPa | 16355 kPa | 16372 kPa | 16443 kPa | 16511 kPa | 16574 kPa
737.4 ± 2 kg/m3: 19925 kPa | 19938 kPa | 19956 kPa | 19976 kPa | 19997 kPa | 20104 kPa
734 ± 2 kg/m3: 14942 kPa | 14976 kPa | 15066 kPa | 15110 kPa | 15133 kPa | 15151 kPa | 15180 kPa
733.5 ± 2 kg/m3: 14376 kPa | 14457 kPa | 14493 kPa | 14524 kPa | 14547 kPa
734.5 ± 2 kg/m3: 15744 kPa | 15814 kPa | 15889 kPa | 15918 kPa | 15947 kPa
737.5 ± 2 kg/m3: 20013 kPa | 20052 kPa | 20073 kPa | 20089 kPa | 20123 kPa | 20164 kPa | 20201 kPa
736.8 ± 2 kg/m3: 18938 kPa | 19159 kPa | 19184 kPa | 19269 kPa
738.1 ± 2 kg/m3: 20787 kPa | 20911 kPa
737 ± 2 kg/m3: 19335 kPa | 19360 kPa | 19383 kPa | 19412 kPa | 19434 kPa | 19456 kPa | 19612 kPa
733.7 ± 2 kg/m3: 14617 kPa | 14673 kPa | 14734 kPa | 14767 kPa | 14792 kPa | 14848 kPa | 14923 kPa
733.9 ± 2 kg/m3: 15016 kPa | 15088 kPa | 15283 kPa
734.2 ± 2 kg/m3: 15355 kPa | 15404 kPa | 15504 kPa | 15584 kPa
735.6 ± 2 kg/m3: 17225 kPa | 17278 kPa | 17533 kPa
736.5 ± 2 kg/m3: 18614 kPa | 18641 kPa | 18664 kPa | 18699 kPa | 18738 kPa | 18762 kPa | 18789 kPa | 18914 kPa
736 ± 2 kg/m3: 17909 kPa | 17959 kPa | 18013 kPa | 18122 kPa
736.2 ± 2 kg/m3: 18169 kPa | 18195 kPa | 18227 kPa | 18304 kPa | 18356 kPa | 18390 kPa
736.9 ± 2 kg/m3: 19122 kPa | 19223 kPa | 19247 kPa | 19302 kPa | 19477 kPa
735.4 ± 2 kg/m3: 17041 kPa | 17063 kPa | 17084 kPa | 17129 kPa | 17181 kPa
733.3 ± 2 kg/m3: 14407 kPa
738 ± 2 kg/m3: 20706 kPa | 20745 kPa | 20764 kPa | 20810 kPa | 20827 kPa | 20846 kPa | 20863 kPa | 20880 kPa | 20897 kPa
737.6 ± 2 kg/m3: 20143 kPa | 20180 kPa | 20222 kPa | 20238 kPa | 20259 kPa | 20280 kPa | 20307 kPa | 20420 kPa | 20477 kPa
733.6 ± 2 kg/m3: 14434 kPa | 14586 kPa | 14705 kPa | 14822 kPa
737.3 ± 2 kg/m3: 19703 kPa | 19725 kPa | 19748 kPa | 19880 kPa | 19906 kPa | 20034 kPa
735.1 ± 2 kg/m3: 16490 kPa | 16531 kPa | 16618 kPa | 16758 kPa | 16878 kPa
736.3 ± 2 kg/m3: 18275 kPa | 18334 kPa | 18466 kPa | 18489 kPa
733.8 ± 2 kg/m3: 14640 kPa | 14871 kPa | 14896 kPa | 14997 kPa | 15041 kPa
736.6 ± 2 kg/m3: 18820 kPa | 18843 kPa
734.4 ± 2 kg/m3: 15605 kPa | 15639 kPa | 15690 kPa | 15769 kPa | 15867 kPa
735.2 ± 2 kg/m3: 16691 kPa | 16733 kPa | 16785 kPa | 16800 kPa | 16831 kPa | 16853 kPa | 16902 kPa | 16924 kPa | 16940 kPa
